Measurements from patent publication US9758527B2, “Cyclohexene derivative, preparation method therefor, and pharmaceutical composition for preventing or treating metabolic diseases, containing same as active ingredient” (HYUNDAI PHARM CO., LTD., priority 2014, dated 2017).
Read-outs that look alike come from different tables or passages of the source.

Target: T1, G protein-coupled receptor 119 (GPR-119) (Mesocricetus auratus, UniProt A0A1U8CD06)
T1 construct: hamster-derived β-cells containing G protein-coupled receptor 119 (GPR-119), HIT-T15 cells; host or cells: HIT-T15 (hamster pancreatic β-cells)
T1 sequence (A0A1U8CD06 1-334): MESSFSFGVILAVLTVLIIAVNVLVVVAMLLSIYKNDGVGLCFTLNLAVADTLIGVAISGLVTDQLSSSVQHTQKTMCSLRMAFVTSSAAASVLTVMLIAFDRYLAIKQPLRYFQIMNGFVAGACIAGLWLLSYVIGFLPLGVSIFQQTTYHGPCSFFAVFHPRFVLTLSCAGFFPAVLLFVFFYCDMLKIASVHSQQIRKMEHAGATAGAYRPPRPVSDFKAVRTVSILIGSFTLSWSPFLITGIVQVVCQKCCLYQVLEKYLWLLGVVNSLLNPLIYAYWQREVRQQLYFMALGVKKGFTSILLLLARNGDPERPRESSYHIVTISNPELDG
Assay: Evaluation of cAMP activity in HIT-T15 cells (HTRF cAMP dynamic kit)
Assay type: cell-based, hamster
Details: cAMP activation
Method in brief: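 HIT-T15 cells, 60,000/well, treated next day with compound at six concentrations ([…]) for 1 h at 37° C. Lysate cAMP quantified by HTRF competitive immunoassay (D2-cAMP, cryptate anti-cAMP); activity taken as change in FRET signal relative to DMSO.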

[1] = 1 h at 37° C., six concentrations, read-out: EC50

| Compound | EC50 [1] | EC50 (read-out: EC50 value) |
| --- | --- | --- |
| CC(C)c1noc(N2CCC(COc3ccc(C4=CCC(C(=O)N5CCSCC5)CC4)cc3F)CC2)n1 (stereo not drawn) [Example 98, (4-(3-fluoro-4-((1-(3-isopropyl-1,2,4-oxadiazol-5-yl)piperidin-4-yl)methoxy)phenyl)cyclohex-3-enyl)(thiomorpholino)methanone] | 6.1 nM | ≤ 50 nM |
| CC(C)c1noc(N2CCC(COc3ccc(C4=CCC(C(=O)NCC(F)F)CC4)nc3)CC2)n1 (stereo not drawn) [Example 99, N-(2,2-difluoroethyl)-4-(5-((1-(3-isopropyl-1,2,4-oxadiazol-5-yl)piperidin-4-yl)methoxy)pyridin-2-yl)cyclohex-3-enecarboxamide] | 160 nM |  |
| CC(C)c1noc(N2CCC(COc3ccc(C4=CCC(C(=O)N5CCOCC5)CC4)nc3)CC2)n1 (stereo not drawn) [Example 100, (4-(5-((1-(3-isopropyl-1,2,4-oxadiazol-5-yl)piperidin-4-yl)methoxy)pyridin-2-yl)cyclohex-3-enyl)(morpholino)methanone] | 95 nM |  |
| CC(C)c1noc(N2CCC(COc3ccc(C4=CCC(C(=O)N5CC[C@@H](F)C5)CC4)nc3)CC2)n1 (stereo partly drawn) [Example 101, ((R)-3-fluoropyrrolidin-1-yl)(4-(5-((1-(3-isopropyl-1,2,4-oxadiazol-5-yl)piperidin-4-yl)methoxy)pyridin-2-yl)cyclohex-3-enyl)methanone] | 110 nM |  |
| CC(C)c1noc(N2CCC(COc3ccc(C4=CCC(C(=O)N5CC[C@H](F)C5)CC4)nc3)CC2)n1 (stereo partly drawn) [Example 102, ((S)-3-fluoropyrrolidin-1-yl)(4-(5-((1-(3-isopropyl-1,2,4-oxadiazol-5-yl)piperidin-4-yl)methoxy)pyridin-2-yl)cyclohex-3-enyl)methanone] | 52 nM |  |
| CCc1cnc(N2CCC(COc3ccc(C4=CCC(C(=O)NCC(F)(F)F)CC4)cc3)CC2)nc1 (stereo not drawn) [Example 103, 4-(4-((1-(5-ethylpyrimidin-2-yl)piperidin-4-yl)methoxy)phenyl)-N-(2,2,2-trifluoroethyl)cyclohex-3-enecarboxamide] | 75 nM |  |
| CCc1cnc(N2CCC(COc3ccc(C4=CCC(C(=O)NCCF)CC4)cc3)CC2)nc1 (stereo not drawn) [Example 104, 4-(4-((1-(5-ethylpyrimidin-2-yl)piperidin-4-yl)methoxy)phenyl)-N-(2-fluoroethyl)cyclohex-3-enecarboxamide] | 70 nM |  |
| CCc1cnc(N2CCC(COc3ccc(C4=CCC(C(=O)N5CCC[C@H]5C(N)=O)CC4)cc3)CC2)nc1 (stereo partly drawn) [Example 105, (2S)-1-(4-(4-((1-(5-ethylpyrimidin-2-yl)piperidin-4-yl)methoxy)phenyl)cyclohex-3-enecarbonyl)pyrrolidine-2-carboxamide] | 43 nM | ≤ 50 nM |
| CCc1cnc(N2CCC(COc3ccc(C4=CCC(C(=O)N5CCC[C@H]5C#N)CC4)cc3)CC2)nc1 (stereo partly drawn) [Example 106, (2S)-1-(4-(4-((1-(5-ethylpyrimidin-2-yl)piperidin-4-yl)methoxy)phenyl)cyclohex-3-enecarbonyl)pyrrolidine-2-carbonitrile] | 22 nM | ≤ 50 nM |
| CC(C)(C)OC(=O)N1CCC(COc2ccc(C3=CCC(C(=O)N4CCC[C@H]4C(N)=O)CC3)cc2F)CC1 (stereo partly drawn) [Example 107, tert-butyl 4-((4-(4-((S)-2-carbamoylpyrrolidine-1-carbonyl)cyclohex-1-enyl)-2-fluorophenoxy)methyl)piperidine-1-carboxylate] | 35 nM | ≤ 50 nM |
| CC(C)c1noc(N2CCC(COc3ccc(C4=CCC(C(=O)N5CCC[C@H]5C(N)=O)CC4)cc3F)CC2)n1 (stereo partly drawn) [Example 108, (2S)-1-(4-(3-fluoro-4-((1-(3-isopropyl-1,2,4-oxadiazol-5-yl)piperidin-4-yl)methoxy)phenyl)cyclohex-3-enecarbonyl)pyrrolidine-2-carboxamide] | 55 nM |  |
| COC(=O)CNC(=O)C1CC=C(c2ccc(OCC3CCN(c4nc(C(C)C)no4)CC3)c(F)c2)CC1 (stereo not drawn) [Example 109] | 190 nM |  |
| CCOC(=O)CCNC(=O)C1CC=C(c2ccc(OCC3CCN(c4nc(C(C)C)no4)CC3)c(F)c2)CC1 (stereo not drawn) [Example 110, ethyl 3-(4-(3-fluoro-4-((1-(3-isopropyl-1,2,4-oxadiazol-5-yl)piperidin-4-yl)methoxy)phenyl)cyclohex-3-enecarboxamido)propanoate] | 110 nM |  |
| CC(C)c1noc(N2CCC(COc3ccc(C4=CCC(C(=O)NCCC(=O)O)CC4)cc3F)CC2)n1 (stereo not drawn) [Example 111, 3-(4-(3-fluoro-4-((1-(3-isopropyl-1,2,4-oxadiazol-5-yl)piperidin-4-yl)methoxy)phenyl)cyclohex-3-enecarboxamido)propanoic acid] | 1500 nM |  |
| CC(C)c1noc(N2CCC(COc3ccc(C4=CCC(C(=O)NCC(=O)N5CCOCC5)CC4)cc3F)CC2)n1 (stereo not drawn) [Example 112, 4-(3-fluoro-4-((1-(3-isopropyl-1,2,4-oxadiazol-5-yl)piperidin-4-yl)methoxy)phenyl)-N-(2-morpholino-2-oxoethyl)cyclohex-3-enecarboxamide] | 70 nM |  |
| CC(C)c1noc(N2CCC(COc3ccc(C4=CCC(C(=O)NCCC(=O)N5CCOCC5)CC4)cc3F)CC2)n1 (stereo not drawn) [Example 113, 4-(3-fluoro-4-((1-(3-isopropyl-1,2,4-oxadiazol-5-yl)piperidin-4-yl)methoxy)phenyl)-N-(3-morpholino-3-oxopropyl)cyclohex-3-enecarboxamide] | 68 nM |  |
| CC(C)(C)OC(=O)N1CCC(COc2ccc(C3=CCC(C(=O)N4CCC[C@H]4C#N)CC3)cc2F)CC1 (stereo partly drawn) [Example 114, tert-butyl 4-((4-(4-((S)-2-cyanopyrrolidine-1-carbonyl)cyclohex-1-enyl)-2-fluorophenoxy)methyl)piperidine-1-carboxylate] | 14 nM | ≤ 50 nM |
| CC(C)c1noc(N2CCC(COc3ccc(C4=CCC(C(=O)N5CCC[C@H]5C#N)CC4)cc3F)CC2)n1 (stereo partly drawn) [Example 115, (2S)-1-(4-(3-fluoro-4-((1-(3-isopropyl-1,2,4-oxadiazol-5-yl)piperidin-4-yl)methoxy)phenyl)cyclohex-3-enecarbonyl)pyrrolidine-2-carbonitrile] | 15 nM | ≤ 50 nM |
| CC(C)c1noc(N2CCC(COc3ccc(C4=CCC(C(=O)N5CCC[C@@H]5C(N)=O)CC4)cc3F)CC2)n1 (stereo partly drawn) [Example 116, (2R)-1-(4-(3-fluoro-4-((1-(3-isopropyl-1,2,4-oxadiazol-5-yl)piperidin-4-yl)methoxy)phenyl)cyclohex-3-enecarbonyl)pyrrolidine-2-carboxamide] | 28 nM | ≤ 50 nM |
| CC(C)c1noc(N2CCC(COc3ccc(C4=CCC(C(=O)N5CCC[C@@H]5C#N)CC4)cc3F)CC2)n1 (stereo partly drawn) [Example 117, (2R)-1-(4-(3-fluoro-4-((1-(3-isopropyl-1,2,4-oxadiazol-5-yl)piperidin-4-yl)methoxy)phenyl)cyclohex-3-enecarbonyl)pyrrolidine-2-carbonitrile] | 11 nM | ≤ 50 nM |
| CC(C)c1noc(N2CCC(COc3ccc(C4=CCC(C(=O)NCCO)CC4)cc3F)CC2)n1 (stereo not drawn) [Example 120, 4-(3-fluoro-4-((1-(3-isopropyl-1,2,4-oxadiazol-5-yl)piperidin-4-yl)methoxy)phenyl)-N-(2-hydroxyethyl)cyclohex-3-enecarboxamide] | 80 nM |  |
| CC(C)c1noc(N2CCC(COc3ccc(C4=CCC(C(=O)NCC(=O)N5CCC[C@@H]5C(N)=O)CC4)cc3F)CC2)n1 (stereo partly drawn) [Example 121, (2R)-1-(2-(4-(3-fluoro-4-((1-(3-isopropyl-1,2,4-oxadiazol-5-yl)piperidin-4-yl)methoxy)phenyl)cyclohex-3-enecarboxamido)acetyl)pyrrolidine-2-carboxamide] | 500 nM |  |
| CC(C)c1noc(N2CCC(COc3ccc(C4=CCC(C(=O)NCC(=O)N5CCC[C@@H]5C#N)CC4)cc3F)CC2)n1 (stereo partly drawn) [Example 122, N-(2-((R)-2-cyanopyrrolidin-1-yl)-2-oxoethyl)-4-(3-fluoro-4-((1-(3-isopropyl-1,2,4-oxadiazol-5-yl)piperidin-4-yl)methoxy)phenyl)cyclohex-3-enecarboxamide] | 130 nM |  |
| CCc1cnc(N2CCC(COc3ccc(C4=CCC(C(=O)N5CCN(C6CC6)CC5)CC4)cc3)CC2)nc1 (stereo not drawn) [Example 123, (4-cyclopropylpiperazin-1-yl)(4-(4-((1-(5-ethylpyrimidin-2-yl)piperidin-4-yl)methoxy)phenyl)cyclohex-3-enyl)methanone] | 35 nM | ≤ 50 nM |
| CCc1cnc(N2CCC(COc3ccc(C4=CCC(C(=O)N5CCN(CC6CC6)CC5)CC4)cc3)CC2)nc1 (stereo not drawn) [Example 124, (4-(cyclopropylmethyl)piperazin-1-yl)(4-(4-((1-(5-ethylpyrimidin-2-yl)piperidin-4-yl)methoxy)phenyl)cyclohex-3-enyl)methanone] | 100 nM |  |
| C[C@H](O)CNC(=O)C1CC=C(c2ccc(OCC3CCN(C(=O)OC(C)(C)C)CC3)cc2F)CC1 (stereo partly drawn) [Example 125, tert-butyl 4-((3-fluoro-4-(4-((S)-2-hydroxypropylcarbamoyl)cyclohex-1-enyl)phenoxy)methyl)piperidine-1-carboxylate] | 70 nM |  |
| C[C@@H](O)CNC(=O)C1CC=C(c2ccc(OCC3CCN(C(=O)OC(C)(C)C)CC3)cc2F)CC1 (stereo partly drawn) [Example 126, tert-butyl 4-((3-fluoro-4-(4-((R)-2-hydroxypropylcarbamoyl)cyclohex-1-enyl)phenoxy)methyl)piperidine-1-carboxylate] | 130 nM |  |
